Source: patent EP0231622B1, “Inhibition of the 5-lipoxygenase pathway” (priority 1985, dated 1987)
pIC50: −log10 of the molar value. Marks after values point to notes of the source that are not given here.

What was measured:
[1] = test system: Arachidonic Acid-Induced Rat Paw Edema; assay: Arachidonic acid-induced rat paw swelling; type: in vivo, Lewis rats; conditions: 100 mg/kg, read at 2 hours
Description: (§1) In the following Examples where mice were used, they were male Balb/c mice (20-28 g), and where rats were used, they were male Lewis rats (180-210 g). All mice and rats were obtained from Charles River Breeding Laboratories, Kingston, N.Y. Within a single experiment, mice and rats were sex and age matched.
(§2) The compounds of Formula (IA) were used either as the free base or in the appropriate salt form. Levamisole was used as the hydrochloride salt. The compounds were homogenized in 0.5% tragacanth. Compounds were administered by gavage at the indicated dose in a final volume of 10 ml/kg. Nordihydroguaiaretic acid (NDGA) was solubilized in dimethylacetamide and diluted with olive oil for subcutaneous administration.

[2] = test system: Arachidonic Acid-Induced Inflammation of the Mouse Ear; assay: Arachidonic acid-induced mouse ear inflammation; type: in vivo, Balb/c mice
Description: as §1, §2
Arachidonic acid in acetone (2 mg/20 ul) was applied to the inner surface of the left ear. The thickness of both ears was then measured with a dial micrometer one hour after treatment, and the data were expressed as the change in thickness (10⁻³ cm) between treated and untreated ears.
Test compounds were given orally in 0.5% tragacanth at the times indicated in the text prior to the topical application of arachidonic acid.
Parenteral administration of compound was accomplished by subcutaneous injection of solution as indicated.

5-Lipoxygenase = target: T1, 5-Lipoxygenase (Rattus norvegicus, UniProt P12527); assay: 5-HETE production by RBL-1 high speed supernatant; type: biochemical
T1 construct: The activities of these enzymes in extracts of RBL-1 cells were assayed; host or cells: RBL-1 cells, disrupted by nitrogen cavitation; 10,000 x g or 100,000 x g supernatant
T1 sequence (P12527 1-673): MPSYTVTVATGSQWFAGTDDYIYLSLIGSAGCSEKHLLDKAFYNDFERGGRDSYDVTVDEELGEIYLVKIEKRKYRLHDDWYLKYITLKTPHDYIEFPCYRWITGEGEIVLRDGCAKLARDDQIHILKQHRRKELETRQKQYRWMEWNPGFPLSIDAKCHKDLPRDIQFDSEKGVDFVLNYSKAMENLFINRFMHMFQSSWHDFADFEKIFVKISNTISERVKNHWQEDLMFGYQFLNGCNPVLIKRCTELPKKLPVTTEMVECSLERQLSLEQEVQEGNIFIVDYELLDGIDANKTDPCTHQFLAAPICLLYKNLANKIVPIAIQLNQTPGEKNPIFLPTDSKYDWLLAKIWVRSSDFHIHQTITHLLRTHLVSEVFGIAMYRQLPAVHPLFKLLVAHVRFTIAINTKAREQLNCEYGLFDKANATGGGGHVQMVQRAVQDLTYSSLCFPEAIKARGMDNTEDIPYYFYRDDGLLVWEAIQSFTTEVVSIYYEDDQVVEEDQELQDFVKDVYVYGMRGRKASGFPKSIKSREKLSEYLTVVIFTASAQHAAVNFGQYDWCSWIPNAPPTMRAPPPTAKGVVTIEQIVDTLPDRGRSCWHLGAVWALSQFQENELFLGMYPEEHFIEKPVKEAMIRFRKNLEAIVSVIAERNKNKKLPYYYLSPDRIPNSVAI
Method: For in vitro experiments, compounds were dissolved at appropriate concentrations in ethanol or DMSO (dimethylsulfoxide) (final concentration <1.0%) and then diluted to final concentrations using the buffers indicated in the text.
The activities of these enzymes in extracts of RBL-1 cells were assayed using the method of Jakschik and Lee, Nature, 287, 51-52 (1980). RBL-1 cells were obtained from the American Type Culture Collection (#CRL 1378) and were grown at 37°C (5% CO₂ in air) in spinner culture in MEM supplemented with 10% heat inactivated fetal calf serum. Harvested cells were washed with 50 mM sodium phosphate buffer, pH 7.0, containing 1 mM EDTA and 0.1% gelatin, resuspended in fresh buffer (5 x 10⁷ cells/ml) and disrupted by nitrogen cavitation using the Parr bomb at 750 psi for 10 min. The broken cell extract was then centrifuged at 10,000 x g for 20 minutes and the supernatant centrifuged at 100,000 x g for 60 minutes. Aliquots (0.25 mls) of the supernatant were preincubated with or without drugs for 10 min, after which 10 ul CaCl₂ (50 mM) was added and the reaction was initiated with 2.5 ul of 2.5 mM arachidonic acid-1-¹⁴C (final concentration was […]; specific activity 20,000 dpm/nmole). After incubation for 3 min at 37°C, the reaction was terminated by addition of 2 volumes (0.5 ml) ice cold acetone and the sample was allowed to deproteinize on ice for 10 min prior to centrifugation at 1,000 x g for 10 min. The deproteinized supernatant was adjusted to pH 3.5 with 2N formic acid and extracted with 2 volumes of ice cold ethyl acetate. The extracted samples were dried under argon, redissolved in ethyl acetate and applied to Whatman LK5D thin layer chromatography (TLC) plates which were developed using the A-9 solvent system [organic phase of ethyl acetate: 2,2,5-trimethylpentane:acetic acid: water (110:50:20:10)] described by Hamberg and Samuelsson, J. Biol. Chem., 241, 257-263 (1966). Arachidonic acid, 5-HETE, di-HETE and PGD₂ were quantified with a Berthold LB 2832 autoscanner.
The 5-lipoxygenase and LTA₄ synthetase activities were further studied under the following conditions. An additional centrifugation of the RBL-1 supernatant was run at 100,000 x g for 60 min, to remove the particulate cyclooxygenase activity. Sample incubation was done under conditions similar to those described above, i.e., 2 mM CaCl₂ and 25 uM arachidonic acid-1-¹⁴C, however, with an incubation time of 5 min at […]. Under these conditions, only the 5-lipoxygenase pathway metabolites were detectable. The 5-HETE and di-HETEs were formed at a linear rate, and […] amounts of the arachidonic acid-1-¹⁴C substrate were utilized.

5-LO = target: T2, 5-LO (Rattus norvegicus, UniProt P12527); assay: di-HETE production by RBL-1 high speed supernatant; type: biochemical
T2 construct: The activities of these enzymes in extracts of RBL-1 cells were assayed; host or cells: RBL-1 cells, disrupted by nitrogen cavitation; 10,000 x g or 100,000 x g supernatant
T2 sequence (P12527 1-673): T1 sequence (P12527 1-673)
Outline: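 RBL-1 cell 100,000 x g supernatant was preincubated 10 min with compound, then given CaCl₂ and 25 uM [¹⁴C]arachidonic acid for 3 min at 37°C. 5-HETE and di-HETE were quantified by TLC radioscanning. A variant re-centrifuged the supernatant and incubated 5 min at 5°C with 2 mM CaCl₂.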

In the case of Fc1ccc(-c2nc3n(c2-c2ccncc2)CCS3)cc1 [Compound 1, 5-(4-pyridyl)-6-(4-fluorophenyl)-2,3-dihydroimidazo[2,1-b]thiazole], the “Change in Paw Volume” value ([1]; one hour before arachidonic acid) was 0.06 ± 0.05 mL, the “(% Inhibition) of change in paw volume” value [1] was 78% and the ED50 ([2]; Mus musculus, po, 1 hour after 2 mg of arachidonic acid to the ear, read-out: ED₅₀ (inhibition of the edematous response of the ear)) was 19.5 mg/kg. For the same compound, the “% Change” value ([2]; Table 7, 50 mg/kg, p.o.) was -67^b %, the “Increase in Ear Thickness at 1 Hour (x 10⁻³ cm)” value ([2]; Table 7, 50 mg/kg, p.o., 15 minutes before arachidonic acid) was 10.0 ± 1.5 x 10⁻³ cm and the “5-HETE (nM/ml)” value (5-Lipoxygenase; 1 uM) was 8.86 ± 0.31 nM/ml. The inhibition at 1 µM (5-Lipoxygenase; 1 uM, read-out: % Control (5-HETE)) was 12.7%, the “5-HETE (nM/ml)” value (5-Lipoxygenase; 3.3 uM) was 7.63 ± 0.44 nM/ml and the inhibition at 3.3 µM (5-Lipoxygenase; 3.3 uM, read-out: % Control (5-HETE)) was 24.9%. For the same compound, the “5-HETE (nM/ml)” value (5-Lipoxygenase; 10 uM) was 5.57 ± 0.35 nM/ml, the inhibition at 10 µM (5-Lipoxygenase; 10 uM, read-out: % Control (5-HETE)) was 45.1% and the “5-HETE (nM/ml)” value (5-Lipoxygenase; 33 uM) was 3.36 ± 0.07 nM/ml. The inhibition at 33 µM (5-Lipoxygenase; 33 uM, read-out: % Control (5-HETE)) was 67.9%, the “5-HETE (nM/ml)” value (5-Lipoxygenase; 100 uM) was 1.08 ± 0.13 nM/ml and the inhibition at 100 µM (5-Lipoxygenase; 100 uM, read-out: % Control (5-HETE)) was 89.4%. For the same compound, the “Di-HETE (nM/ml)” value (5-LO; 1 uM) was 1.56 ± 0.06 nM/ml, the inhibition at 1 µM (5-LO; 1 uM, read-out: % Control (Di-HETE)) was 19.7% and the “Di-HETE (nM/ml)” value (5-LO; 3.3 uM) was 1.34 ± 0.12 nM/ml. The inhibition at 3.3 µM (5-LO; 3.3 uM, read-out: % Control (Di-HETE)) was 30.9%, the “Di-HETE (nM/ml)” value (5-LO; 10 uM) was 0.88 ± 0.21 nM/ml and the inhibition at 10 µM (5-LO; 10 uM, read-out: % Control (Di-HETE)) was 54.8%. For the same compound, the “Di-HETE (nM/ml)” value (5-LO; 33 uM) was 0.40 ± 0.08 nM/ml, the inhibition at 33 µM (5-LO; 33 uM, read-out: % Control (Di-HETE)) was 79.6% and the “Di-HETE (nM/ml)” value (5-LO; 100 uM) was 0.03 ± 0.04 nM/ml. The inhibition at 100 µM (5-LO; 100 uM, read-out: % Control (Di-HETE)) was 98.3% and the pIC50 (5-LO; soluble extract of RBL-1 cells containing only lipoxygenase activity, read-out: IC₅₀ eicosanoid formation (di-HETE production)) was 5.12.
